Results as given in patent US20170291905A1, “ARGININE […] INHIBITORS AND USES THEREOF” (Epizyme, Inc., priority 2014, published 2017).

How the values were obtained:
[1] = target: T1, full-length human PRMT1 isoform 1 (GST-tagged) (Homo sapiens, UniProt Q99873); experiment: PRMT1 biochemical assay (3H-SAM Flashplate, histone H4 36-50 peptide); conditions: 0.5 nM PRMT1, 30 min preincubation, 20 nM peptide
T1 construct: GST-tagged PRMT1 was eluted with 50 mM Tris, 2 mM glutathione, pH 7.8, dialysed in buffer A and concentrated; made in house; host or cells: High Five insect cells (baculovirus)
Excerpt: (§1) S-adenosylmethionine (SAM), S-adenosylhomocysteine (SAH), bicine, Tween20, dimethylsulfoxide (DMSO), bovine skin gelatin (BSG), and Tris(2-carboxyethyl)phosphine hydrochloride solution (TCEP) were purchased from Sigma-Aldrich at the highest level of purity possible. ^3H-SAM was purchase from American Radiolabeled Chemicals with a specific activity of 80 Ci/mmol. 384-well streptavidin Flashplates were purchased from PerkinElmer.
Peptide representative of human histone H4 residues 36-50 was synthesized with an N-terminal linker-affinity tag motif and a C-terminal amide cap by 21st Century Biochemicals. The peptide was purified by high-performance liquid chromatography (HPLC) to greater than 95% purity and confirmed by liquid chromatography mass spectrometry (LC-MS). The sequence was Biot-Ahx-[…]-amide (SEQ ID NO.:1).
Full-length human PRMT1 isoform 1 (NM_001536.5) transcript clone was amplified from an HEK 293 cDNA library, incorporating flanking 5′ sequence encoding a FLAG tag ([…]) (SEQ ID NO.:2) fused directly to Met 1 of PRMT1. The amplified gene was subcloned into pFastBacI (Life Technologies) modified to encode an N-terminal GST tag and a TEV cleavage sequence
Recombinant baculovirus were generated according to Bac-to-Bac kit instructions (Life Technologies). Protein over-expression was accomplished by infecting exponentially growing High Five insect cell culture at 1.5×10^6 cell/ml with 1:100 ratio of virus. Infections were carried out at 27° C. for 48 hours, harvested by centrifugation, and stored at −80° C. for purification.
GST-tagged PRMT1 was eluted with 50 mM Tris, 2 mM glutathione, pH 7.8, dialysed in buffer A and concentrated to 1 mg/mL. The purity of recovered protein was 73%. Reference: Wasilko, D. J. and S. E. Lee: “TIPS: titerless infected-cells preservation and scale-up” Bioprocess J., 5 (2006), pp. 29-32.
General Procedure for PRMT1 Enzyme Assays on Peptide Substrates.
The assays were all performed in a buffer consisting of 20 mM Bicine (pH=7.6), 1 mM TCEP, 0.005% BSG, and 0.002% Tween 20, prepared on the day of use. Compounds in 100% DMSO (1 ul) were spotted into a polypropylene 384-well V-bottom plates (Greiner) using a Platemate Plus outfitted with a 384-channel head (Thermo Scientific). DMSO (1 ul) was added to Columns 11, 12, 23, 24, rows A-H for the maximum signal control and 1 ul of SAH, a known product and inhibitor of PRMT1, was added to columns 11, 12, 23, 24, rows I-P for the minimum signal control. A cocktail (40 ul) containing the PRMT1 enzyme was added by Multidrop Combi (Thermo-Fisher). The compounds were allowed to incubate with PRMT1 for 30 min at room temperature, then a cocktail (10 ul) containing SAM and peptide was added to initiate the reaction (final volume=51 ul). The final concentrations of the components were as follows: PRMT1 was 0.5 nM, ^3H-SAM was 200 nM, non-radiolabeled SAM was 1.5 uM, peptide was 20 nM, SAH in the minimum signal control wells was 1 mM, and the DMSO concentration was 2%. The assays were stopped by the addition of non-radiolabeled SAM (10 ul) to a final concentration of 300 uM, which dilutes the ^3H-SAM to a level where its incorporation into the peptide substrate is no longer detectable. 50 ul of the reaction in the 384-well polypropylene plate was then transferred to a 384-well Flashplate and the biotinylated peptides were allowed to bind to the streptavidin surface for at least 1 hour before being washed once with 0.1% Tween20 in a Biotek ELx405 plate washer. The plates were then read in a PerkinElmer TopCount plate reader to measure the quantity of ^3H-labeled peptide bound to the Flashplate surface, measured as disintegrations per minute (dpm) or alternatively, referred to as counts per minute (cpm).
(§2) Where dpm=disintegrations per minute, cmpd=signal in assay well, and min and max are the respective minimum and maximum signal controls. […]

[2] = target: full-length human PRMT6 (Flag- and His-tagged) (Homo sapiens, UniProt Q96LA8); experiment: PRMT6 biochemical assay (3H-SAM Flashplate, histone H4 36-50 K44me1 peptide); conditions: 1 nM PRMT6, 30 min preincubation, 75 nM peptide
Excerpt: as §1, with “(BSG), sodium butyrate” for “(BSG),”
Peptide representative of human histone H4 residues 36-50 was synthesized with an N-terminal linker-affinity tag motif and a C-terminal amide cap by 21st Century Biochemicals. The peptide was purified by high-performance liquid chromatography (HPLC) to greater than 95% purity and confirmed by liquid chromatography mass spectrometry (LC-MS). The sequence was Biot-Ahx-[…]-amide and contained a monomethylated lysine at position 44 (SEQ ID NO.:5).
Full-length human PRMT6 (NM_018137.2) transcript clone was amplified from an HEK 293 cDNA library, incorporating a flanking 5′ sequence encoding a FLAG tag ([…]) (SEQ ID NO.:6) fused directly to Ser 2 of PRMT6 and a 3′ sequence encoding a hexa His sequence (HHHHHH) (SEQ ID NO.: 17) fused directly to Asp 375. The amplified gene was subcloned into pFastBacMam (Viva Biotech).
Recombinant baculovirus were generated according to Bac-to-Bac kit instructions (Life Technologies). […] Infections were carried out at 37° C. for 48 hours, harvested by centrifugation, and stored at −80° C. for purification.
Column was washed with 20 mM imidazole in the same buffer and Flag-PRMT6-His was eluted with 150 mM imidazole. Pooled fractions were dialysed against buffer Ni-A and further purified by anti-flag M2 affinity chromatography. Flag-PRMT6-His was eluted with 200 ug/ml FLAG peptide in the same buffer. Pooled fractions were dialysed in 20 mM Tris, 150 mM NaCl, 10% glycerol and 5 mM β-mercaptoethanol, pH 7.8. The purity of recovered protein was 95%.
General Procedure for PRMT6 Enzyme Assays on Peptide Substrates.
The assays were all performed in a buffer consisting of 20 mM Bicine (pH=7.6), 1 mM TCEP, 0.005% BSG, and 0.002% Tween 20, prepared on the day of use. Compounds in 100% DMSO (1 ul) were spotted into a polypropylene 384-well V-bottom plates (Greiner) using a Platemate Plus outfitted with a 384-channel head (Thermo Scientific). DMSO (1 ul) was added to Columns 11, 12, 23, 24, rows A-H for the maximum signal control and 1 ul of SAH, a known product and inhibitor of PRMT6, was added to columns 11, 12, 23, 24, rows I-P for the minimum signal control. A cocktail (40 ul) containing the PRMT6 enzyme was added by Multidrop Combi (Thermo-Fisher). The compounds were allowed to incubate with PRMT6 for 30 min at room temperature, then a cocktail (10 ul) containing SAM and peptide was added to initiate the reaction (final volume=51 ul). The final concentrations of the components were as follows: PRMT6 was 1 nM, ^3H-SAM was 200 nM, non-radiolabeled SAM was 250 nM, peptide was 75 nM, SAH in the minimum signal control wells was 1 mM, and the DMSO concentration was 2%. The assays were stopped by the addition of non-radiolabeled SAM (10 ul) to a final concentration of 400 uM, which dilutes the ^3H-SAM to a level where its incorporation into the peptide substrate is no longer detectable. 50 ul of the reaction in the 384-well polypropylene plate was then transferred to a 384-well Flashplate and the biotinylated peptides were allowed to bind to the streptavidin surface for at least 1 hour before being washed once with 0.1% Tween20 in a Biotek ELx405 plate washer. The plates were then read in a PerkinElmer TopCount plate reader to measure the quantity of ^3H-labeled peptide bound to the Flashplate surface, measured as disintegrations per minute (dpm) or alternatively, referred to as counts per minute (cpm).
as §2

T1 sequence (Q99873 with tags, fused parts or gaps): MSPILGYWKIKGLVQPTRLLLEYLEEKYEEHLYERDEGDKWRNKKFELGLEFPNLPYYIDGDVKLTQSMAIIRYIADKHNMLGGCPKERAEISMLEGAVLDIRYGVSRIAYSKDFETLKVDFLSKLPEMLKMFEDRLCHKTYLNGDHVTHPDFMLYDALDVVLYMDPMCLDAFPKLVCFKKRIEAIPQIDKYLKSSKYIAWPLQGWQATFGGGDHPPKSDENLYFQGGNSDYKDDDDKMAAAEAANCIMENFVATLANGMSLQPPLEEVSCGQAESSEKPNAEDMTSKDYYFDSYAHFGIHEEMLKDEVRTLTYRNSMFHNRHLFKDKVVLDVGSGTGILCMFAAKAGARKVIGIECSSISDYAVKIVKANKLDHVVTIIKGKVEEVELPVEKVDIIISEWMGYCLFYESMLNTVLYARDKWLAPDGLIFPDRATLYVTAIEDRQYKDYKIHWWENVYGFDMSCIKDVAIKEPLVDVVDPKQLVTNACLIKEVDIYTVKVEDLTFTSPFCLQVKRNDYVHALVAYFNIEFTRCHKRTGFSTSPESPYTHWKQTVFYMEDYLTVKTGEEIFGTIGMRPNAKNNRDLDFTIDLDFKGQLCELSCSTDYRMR
full-length human PRMT6 (Flag- and His-tagged), sequence (Q96LA8 with tags, fused parts or gaps): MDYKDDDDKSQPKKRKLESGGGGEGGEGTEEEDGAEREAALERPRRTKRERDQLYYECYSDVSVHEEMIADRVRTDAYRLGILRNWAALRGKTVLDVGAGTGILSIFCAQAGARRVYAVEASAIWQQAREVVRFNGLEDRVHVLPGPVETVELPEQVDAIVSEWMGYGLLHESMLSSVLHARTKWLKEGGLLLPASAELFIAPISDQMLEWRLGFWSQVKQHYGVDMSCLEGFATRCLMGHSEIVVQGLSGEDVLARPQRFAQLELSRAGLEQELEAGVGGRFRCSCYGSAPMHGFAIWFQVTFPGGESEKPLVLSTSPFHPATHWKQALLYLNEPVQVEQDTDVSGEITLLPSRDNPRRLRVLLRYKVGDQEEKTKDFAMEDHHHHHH

| SMILES | IC50 [1] | IC50 [2] |
| --- | --- | --- |
| CNCCN(C)Cc1c([C@H]2CC[C@@]3(CC2)CC(C)(C)CO3)nnn1C [compound 53] | 5850 nM | > 10000 nM |
| CNCCN(C)Cc1c([C@H]2CC[C@]3(CC2)CC(C)(C)CO3)nnn1C [compound 54] | 9310 nM | 9920 nM |
| CN(CCN)Cc1cn(C)nc1[C@H]1CC[C@@]2(CC1)CC(C)(C)CO2 [compound 55] | 7.28 nM | 191 nM |
| CN(CCN)Cc1cn(C)nc1[C@H]1CC[C@]2(CC1)CC(C)(C)CO2 [compound 56] | 31 nM | 850 nM |
